Measured values as given in patent publication US20220401408A1, “COMPOSITIONS AND METHODS FOR RESCUING RETINAL AND CHOROIDAL STRUCTURE AND FUNCTION” (AUCKLAND UNISERVICES LIMITED, priority 2019, published 2022).
“Also recorded” adds a separate entry of the source.

Tests used:
light damaged rats [1] = test: Electroretinogram (ERG) in retina light damage model of dry AMD; assay type: in vivo, Sprague Dawley (SD) rats; details: for mixed a-wave amplitude vs light damaged control group: 1 week post treatment
Procedure: (§1) Retina Light Damage Model of Dry Age-Related Macular Degeneration—The intense light damage model was prepared and carried out as described in previous studies. Mat Nor N, Guo C X, Rupenthal ID, Chen Y S, Green C R, Acosta M L. Sustained Connexin43 Mimetic Peptide Release From Loaded Nanoparticles Reduces Retinal and Choroidal Photodamage. Invest Ophthalmol Vis Sci. 2018; 59:3682-93; Guo C X, Mat Nor M N, Danesh-Meyer H V, Vessey K A, Fletcher E L, O'Carroll S J, et al. Connexin43 Mimetic Peptide Improves Retinal Function and Reduces Inflammation in a Light-Damaged Albino Rat Model. Invest Ophthalmol Vis Sci. 2016; 57:3961-73; Guo C X, Tran H, Green C R, Danesh-Meyer H V, Acosta M L. Gap junction proteins in the light-damaged albino rat. Mol Vis. 2014; 20:670-82; Noell W K, Walker V S, Kang B S, Berman S. Retinal damage by light in rats. Invest Ophthalmol. 1966; 5:450-73. The light damage rat model was selected as it allows direct comparison with this and other drugs. Kim Y, Griffin J M, Nor M N M, Zhang J, Freestone P S, Danesh-Meyer H V, et al. Tonabersat Prevents Inflammatory Damage in the Central Nervous System by Blocking Connexin43 Hemichannels. Neurotherapeutics. 2017; 14:1148-65; Mat Nor N, Guo C X, Rupenthal ID, Chen Y S, Green C R, Acosta M L, supra; Guo C X, Mat Nor M N, Danesh-Meyer H V, Vessey K A, Fletcher E L, O'Carroll S J, et al., supra. […] All experimental procedures were approved by the University of Auckland Animal Ethics Committee, approval No. 001462 and comply with the Association for Research in Vision and Ophthalmology (ARVO) statement for the use of animals in eye research. Six to eight-week old albino Sprague Dawley (SD) rats (200-250 g; male or female) were used. Adult SD rats were exposed to continuous bright light for 24 hours, consistently starting at 9:00 am to minimize possible time-of-day variability. Light exposure was to two animals at a time to prevent rats from taking cover using each other as a shield. The LD protocol and intervention was repeated until the number of individuals for each dose group was obtained (n=7 per group). The light luminance was 2700 lux, generated using fluorescent lamps (Philips Master TLD 18W/965; Koninklijke Philips Electronics N.V., China) directly above the animal cages. The lamps were cool and emitted broadband light, from 380 to 760 nm wavelength, with the average intensity at the top of the cage being 120 W/m2. Animals were free to move within the cage with access to food and water ad libidum. Baseline electroretinography (ERG) readings and optical coherence tomography (OCT) images were collected prior to the light damage. After light exposure, animals were returned to normal light-dark cycle conditions (12 hours light, 174 lux and 12 hours darkness, <62 lux) for 24 hours, 1 week or 2 weeks (and for one group 3 months).
(§2) Tonabersat treatment of light damaged rats—LD rats were randomly assigned to low, middle or high dose of tonabersat (n=7 per group). The mixture of tonabersat in peanut butter was prepared fresh for each experiment. Three oral tonabersat doses were tested (n=7 per group) with follow up to 2 weeks post-injury, and the highest dose group then split with three animals taken for histological analysis, and four animals followed to 3 months post-injury. There was a ten-animal vehicle only control group. The group of rats that were kept for 3 months were maintained in separate cages for drug or vehicle-treated animals, but were kept under the same light conditions. Tonabersat was fed to animals in peanut butter at 0.26 mg/kg (on average 0.08 mg delivered, estimated circulating concentration 10 μM), 0.8 mg/kg (average of 0.24 mg delivered; 30 μM circulating) or 2.4 mg/kg (on average 0.72 mg delivered; 90 μM circulating) following consideration of previous unsuccessful human trial dosing levels. Silberstein S D. Tonabersat, a novel gap-junction modulator for the prevention of migraine. Cephalalgia. […]

light damaged rats [2] = test: Optical coherence tomography (OCT) of retinal layers and choroid in light damage model; assay type: in vivo, Sprague Dawley (SD) rats
Procedure: as §1, §2

[3] = 2.4 mg/kg oral single dose, 3 months after light damage
[4] = 2.4 mg/kg oral, 3 months post treatment, p<0.001
[5] = all three oral doses, 24 hours, 1 week and 2 weeks post light damage

CC(=O)c1ccc2c(c1)[C@H](NC(=O)c1ccc(F)c(Cl)c1)[C@H](O)C(C)(C)O2 [tonabersat, N-[(3S,4S)-6-acetyl-3-hydroxy-2,2-dimethyl-3,4-dihydrochromen-4-yl]-3-chloro-4-fluorobenzamide]
improvement in absolute amplitude of the b-wave (on average) (light damaged rats [1]; 0.26 mg/kg oral): 1000 µV | mixed a-wave amplitude vs light damaged control group (light damaged rats [1]; 0.26 mg/kg oral single dose, p<0.01): significant improvements | mixed b-wave function (light damaged rats [1]; 0.26 mg/kg oral, 24 hours after treatment): significant improvement | improvement in absolute amplitude of the b-wave (on average) (light damaged rats [1]; 0.8 mg/kg oral): 1000 µV | mixed a-wave amplitude vs light damaged control group (light damaged rats [1]; 0.8 mg/kg oral single dose, p<0.01): significant improvements | mixed b-wave function (light damaged rats [1]; 0.8 mg/kg oral, 24 hours after treatment): significant improvement | improvement in absolute amplitude of the b-wave (on average) (light damaged rats [1]; 2.4 mg/kg oral): 1200 µV | mixed b-wave function, significant improvement (light damaged rats [1]; 2.4 mg/kg oral (high dose), 24 hours after treatment): not seen | mixed a-wave amplitude vs light damaged control group (light damaged rats [1]; 2.4 mg/kg oral single dose, intensities 0.1-2.1 log cd·s/m2, p<0.001): significant improvements | a-wave improvement in photoreceptor function compared with vehicle treated controls (light damaged rats [1]; [3]): exceeding 400 V | b-wave amplitude compared with vehicle treated controls (light damaged rats [1]; [3]): exceeded 800 V | PII rod response compared to before light damage (light damaged rats [1]; 2.4 mg/kg oral, 3 months): no change; also recorded: matching the controls | PIII rod response compared to before light damage (light damaged rats [1]; 2.4 mg/kg oral, 3 months): no change; also recorded: only slightly lower | ERG, difference to vehicle control group (light damaged rats [1]; 24 hours post-light exposure, any of three oral doses (0.26, 0.8, 2.4 mg/kg)): no differences | inner retinal function (mixed b-wave amplitude, all stimulus intensities) (light damaged rats [1]; all three oral doses, 1 and 2 weeks post-treatment): overt improvement | improvement in ERG a-wave over vehicle treated light-injured group (light damaged rats [1]; all three oral doses, 2 weeks post-treatment, highest intensity, p<0.001): ~500 V | mixed a-wave amplitude (light damaged rats [1]; all three oral doses, 2 weeks post-treatment, intensities 0.1-2.1 log cd·s/m2, p<0.001): significant recovery | mixed a-wave and mixed b-wave functions (light damaged rats [1]; all tonabersat-treated animals, end of 2-week recovery period): within the range of variance for normal, undamaged albino rats | ONL thickness compared to same animals prior to light damage (light damaged rats [2]; 2.4 mg/kg oral, 3 months): no difference | choroidal thickness compared to same rats prior to light damage (light damaged rats [2]; 2.4 mg/kg oral, 3 months): no difference | choroidal thickness compared to vehicle treatment group (light damaged rats [2]; [4]): significantly preserved | retinal thickness compared to vehicle treatment group (light damaged rats [2]; [4]): significantly preserved | INL thickness compared to same animals prior to light damage (light damaged rats [2]; 2.4 mg/kg oral, 3 months, p<0.05): slightly reduced thickness | choroidal thickness (OCT) (light damaged rats [2]; [5]): significantly preserved | retinal thickness (OCT) (light damaged rats [2]; [5]): significantly preserved | thinning in the ONL or choroid (light damaged rats [2]; lowest and middle dose (0.26, 0.8 mg/kg), up to 2 weeks post light damage): some thinning at the lowest and middle dose, it was not significant
